The source of these data is PMC9228567 (2022).

This experiment deals with cy5-TTRS (WT Tte-PreQ1 riboswitch aptamer) (RNA, riboswitch) CUCACCUGGGUCGCAGUAACCCCAGUUAACAAAACAAGGGAGGUAAUUUU
Put plainly: microscale thermophoresis. The settings on record: 100 mM KCl, 1 mM MgCl2; 50 mM Tris pH 7.5, RT, DMSO; apparent, single-site fit. (Microscale thermophoresis detects binding through changes in fluorescence in a small temperature gradient.)

Structures are written as SMILES.

In the case of `NCc1c[nH]c2nc(N)[nH]c(=O)c12`, the KD is 11.7 ± 0.35 nM.
